Experimental data as given in patent US20210236577A1, “LIVESTOCK FEED ADDITIVE” (DELACON BIOTECHNIK GMBH, priority 2018, published 2021).
Like-named read-outs stand apart in the source and are kept apart here.

Experiments:
heat shock protein HSP70 = assay type: cell-based, Human
Excerpt: ID NO:1); β-actin reverse: [NT] NO:2); HSP70 forward: [NT] ID NO:3); HSP70 reverse: [NT] ID NO:4).

[1] = tested on: broilers exposed to heat stress; assay: Trial IV: growth performance of broilers under heat stress, naringin dose levels vs betaine; assay type: in vivo, Ross 308 male broilers; conditions: for effect on body weight and daily body weight gain vs negative control: pre-heat stress period d 0 to 21
Excerpt: 1152 one-day old Ross 308 male broilers from a total of 1400 were used in the experiment. Any day-old broilers, showing signs of health problems, injury, or of being too small or in poor condition were excluded in the selection process. Broilers were sexed at the hatchery. All day-old chicks were individually weighted and grouped according to weight. The birds were then assigned to the 36 pens (6 repetitions of 6 treatments), and each pen initially consisted of 34 broilers. On day 4 of the experiment in each pen, the weakest 2 broilers were removed and all pens were equated to 32 birds per pen by negative selection. Birds of the negative control group were fed the basal diet without any further phytogenic additive. The reference group was fed a diet providing 500 mg/kg feed betaine from a natural betaine source (Actibeet®, Agrana). To the diets of groups 3, 4, 5 and 6 the phytogenic premixes with compound “B” were added to achieve final dietary Naringin concentrations of 12/18/24/30 mg/kg of feed.
The trial was carried out at the Delacon Research Facility (Stošíkovice na Louce, Czech Republic). Birds were kept in floor pens, each having an area of 2.1 m^2 (1,65×1,275 m; 2.03 m^2 of usable area=not counting the space occupied with the feeder), with fresh wood shavings as bedding material. Stocking density at the end of the trial was 14,78 chicks/m^2 (38.7 kg/m^2). The building was supplied with artificial, programmable lights, automated central heating and forced ventilation. Temperature was set according to the breeders' recommendations from day 1 to day 21 of age. The onset of heat stress was on day 22 of age. Thereby a cyclic heat stress regime was applied. The heat stress period was from 09:00 in the morning until 17:00 in the afternoon. The average house temperature in this period was 34° C. The “cooling night period” was from 19:00 in the evening until 07:00 in the morning. The average room temperature in this period was 26° C. The time intervals from 07:00 to 09:00 in the morning and from 17:00 to 19:00 in the evening was used to gradually increase or decrease the temperature to 34° C. and 26° C., respectively. In order to increase the humidity of the chicken house under the heat stress regime, towels on the heat panels were moistened 5 times per hour during the heat stress period. Relative humidity was maintained at about 70-80%.
Birds were fed a basal diet, based on wheat, corn, and soybean meal. For each feeding period (starter/grower, grower/finisher) feed was calculated to be iso-nutritive (Table 6). Dietary nutrient concentrations were calculated to fulfill the current recommendations of the broilers according to the breeders' recommendations. According to the applied 2-phase-feeding, a starter/grower diet was offered from days 1 to 21 and a grower/finisher diet from days 22 to 42. The composition of the diets, used in trials IV, V, VI, for the single phases and the calculated nutrient contents are given in Table. All diets were offered to the birds as pelleted feed.
The statistical analyses were performed with the software package SAS. After checking the homogeneity of the data, means were compared by the usual test procedures (Tukey test). Statistical significance was declared at P 0.05, with 0.05<P 0.10 considered as a near-significant trend.

[2] = tested on: broilers exposed to heat stress; assay: Trial V: growth performance of broilers under heat stress, combinations of naringin with different 1,8-cineole concentrations; assay type: in vivo, Ross 308 male broilers
Protocol: In the dose response trial for compound “B” (Trial IV) beneficial effects on the performance of the broilers under heat stress could be observed. […] Consequently in this trial the additional value of adding 1,8-Cineole (compound “A”) in a dose-dependent manner (6/12/24 mg/kg feed) to compound “B” at constantly 12 mg Naringin/kg diet was evaluated. The addition of 500 mg/kg betaine alone or 500 mg betaine+12 mg 1,8-Cineole/kg served as reference groups.
1224 one-day old Ross 308 male broilers from a total of 1400 were used in the experiment. Any day-old broilers, showing signs of health problems, injury, or of being too small or in poor condition were excluded in the selection process. Broilers were sexed at the hatchery. All day-old chicks were individually weighted and grouped according to weight. The birds were then assigned to the 36 pens (6 repetitions of 6 treatments), and each pen initially consisted of 34 broilers. On day 4 of the experiment in each pen, the weakest 2 broilers were removed and all pens were equated to 32 birds per pen by negative selection.
Birds of the negative control group were fed the basal diet without any further phytogenic additive. […]

CC12CCC(CC1)C(C)(C)O2 [A, 1,8 Cineole]
increase in HSP 70 induction compared to control cells (heat shock protein HSP70; CaCo2, 41° C. 1 hour, 7.5 mg 1,8 Cineole/L): 15%
increase of HSP 70 gene expression (heat shock protein HSP70; CaCo2, 41° C. 1 hour, 15 mg 1,8-Cineole/L): 22%
increase of HSP 70 gene expression (heat shock protein HSP70; CaCo2, 41° C. 1 hour, 30 mg 1,8-Cineole/L): 24%
increase of HSP 70 expression (heat shock protein HSP70; CaCo2, 41° C. 1 hour, highest dose tested, 45 mg 1,8-Cineole/L): 44%
increase of HSP 70 expression / induction, single substances alone vs combination (FIG. 3 E) (heat shock protein HSP70; CaCo2 under heat stress, at the tested levels (not given)): 20.8%

C[C@@H]1O[C@@H](O[C@H]2[C@H](Oc3cc(O)c4c(c3)O[C@H](c3ccc(O)cc3)CC4=O)O[C@H](CO)[C@@H](O)[C@@H]2O)[C@H](O)[C@H](O)[C@H]1O [B, Naringin]
performance values (body weight/weight gain/FCR) vs betaine reference group ([1]; broilers under heat stress, 12 mg/kg Naringin complete diet vs 500 mg/kg betaine): slightly better than in the betaine reference group
body weight at day 42 compared with untreated control ([1]; heat stress d22 to 42, compound B groups 12-30 mg/kg): +80 to +140 g
final body weight compared to the negative control ([1]; heat stress d22 to 42, lowest compound B dose (12 mg/kg)): +140 g
effect on body weight and daily body weight gain vs negative control ([1]; all doses 12, 18, 24 and 30 mg/kg diet): +2.79 to +13%
effect on body weight and daily body weight gain vs negative control ([1]; lowest dose 12 mg/kg, significant): +13%
HSP 70 induction compared to untreated control cells (heat shock protein HSP70; CaCo2, 41° C. 1 hour, 60 mg Naringin/L, adverse effect): −23%
increase in HSP 70 induction compared to untreated control cells (heat shock protein HSP70; CaCo2, 41° C. 1 hour, Naringin 12 to 30 mg/L, significant): +24 to +27%
increase of HSP 70 induction compared to untreated control cells (heat shock protein HSP70; CaCo2, 41° C. 1 hour, lowest Naringin concentration tested (6 mg/L), not significant): +16%

C[N+](C)(C)CC(=O)[O-] [betaine, N,N,N-Trimethylammonioacetate, reference compound]
body weight at day 42 compared with untreated control ([1]; heat stress d22 to 42, betaine 500 mg/kg): +170 g
effect on body weight and daily body weight gain vs negative control ([1]; betaine 500 mg/kg): +4.9%
increase of daily weight gain compared to the negative control ([2]; pre-heat stress period, betaine 500 mg/kg alone or plus 12 mg/kg compound A): 2.5%
growth promoting effect / increase of growth performance compared to the negative control ([2]; under heat stress conditions d22 to 42, betaine 500 mg/kg, all tested combinations AB): +2.0%
heat shock protein 70 induction compared to untreated control cells (heat shock protein HSP70; CaCo2, 41° C. 1 hour, 100, 250 and 1000 mg/L betaine): −7 to −19%
heat shock protein 70 response compared to untreated control cells (heat shock protein HSP70; CaCo2, 41° C. 1 hour, 500 and 2000 mg/L betaine, non-significant): +10 to +12%

Betalain [C]
HSP 70 induction in CaCo2 cells over the control (in words) (heat shock protein HSP70; Caco-2): improve HSP 70 induction
